Results taken from patent US20250100995A1, “CEREBLON BINDING COMPOUNDS, COMPOSITIONS THEREOF, AND METHODS OF TREATMENT THEREWITH” (CELGENE CORPORATION, priority 2021, published 2025).
Where a name gives a salt, the structure may show the parent alone.

Molecular target: T1, AR (Homo sapiens, UniProt P10275)
T1 construct: endogenous in cells; host or cells: VCaP cells
T1 sequence (P10275 1-920): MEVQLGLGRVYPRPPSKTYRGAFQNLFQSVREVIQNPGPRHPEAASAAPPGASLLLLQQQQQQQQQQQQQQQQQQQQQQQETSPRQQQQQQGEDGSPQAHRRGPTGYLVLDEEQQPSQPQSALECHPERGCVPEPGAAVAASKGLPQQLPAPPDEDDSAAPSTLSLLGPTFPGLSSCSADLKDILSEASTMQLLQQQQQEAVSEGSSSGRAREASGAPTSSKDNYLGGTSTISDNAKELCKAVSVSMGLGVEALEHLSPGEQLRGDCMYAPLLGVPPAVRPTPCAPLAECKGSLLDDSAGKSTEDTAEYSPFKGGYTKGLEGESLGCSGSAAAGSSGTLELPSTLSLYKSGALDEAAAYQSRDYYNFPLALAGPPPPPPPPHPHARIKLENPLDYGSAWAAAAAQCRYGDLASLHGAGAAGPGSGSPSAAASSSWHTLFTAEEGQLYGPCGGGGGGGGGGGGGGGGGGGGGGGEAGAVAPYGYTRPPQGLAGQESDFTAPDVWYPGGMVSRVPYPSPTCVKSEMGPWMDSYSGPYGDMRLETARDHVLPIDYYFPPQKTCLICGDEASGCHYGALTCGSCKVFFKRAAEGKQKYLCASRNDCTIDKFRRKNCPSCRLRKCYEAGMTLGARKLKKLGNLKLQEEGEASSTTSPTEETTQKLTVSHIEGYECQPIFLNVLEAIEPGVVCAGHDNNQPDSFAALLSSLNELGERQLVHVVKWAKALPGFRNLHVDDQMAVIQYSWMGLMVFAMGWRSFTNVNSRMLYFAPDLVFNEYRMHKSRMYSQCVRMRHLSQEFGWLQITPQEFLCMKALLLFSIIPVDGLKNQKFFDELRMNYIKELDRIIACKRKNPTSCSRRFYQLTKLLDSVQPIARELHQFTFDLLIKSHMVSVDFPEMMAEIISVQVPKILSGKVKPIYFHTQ
Assay: VCAP AR Degradation Assay
Assay type: cell-based
Settings: VCaP cells, 24 h, AR ELISA; for DC50: concentration of compound when AR level = 50% of DMSO control; for Y: lowest measured AR level normalized to DMSO control (AR degradation efficiency)
Experimental: VCAP AR Degradation Assay. Test compounds were pre-dispensed into a Corning CellBind 96-well clear bottom plate (Cat #3300) using an acoustic dispenser to make a 10-point concentration series at 1:3 dilution for each compound. The final top concentration of each compound was 5 μM. DMSO at a final concentration of 0.1% was used as a control. VCaP cells cultured in DMEM with 8% fetal bovine serum (FBS) were seeded at 50K cells per well in a 200 μL volume into the compound plate and incubated at 37° C. in a CO2 incubator for 24 h. The medium was carefully removed from the cells and the plate was placed on ice. One hundred μL of ice-cold 1× cell lysis buffer from Cell Signaling Technologies (Cat #9803) was added to each well of the cells and the plate was incubated at 4° C. on a shaker for 1 h. Fifteen μL of cell lysate was used for AR ELISA detection using a PathScan Total Sandwich AR ELISA kit (Cell Signaling Technology, Cat #12580). AR levels in compound-treated wells were normalized to that of DMSO control and expressed as percent of control (PoC) (y). A Four Parameter Logistic Model (Sigmoidal Dose-Response Model) was used to determine the compound's DC50, and EC50, using the following equation: […]
The lowest measured AR level normalized to DMSO control in response to compound treatment, termed Y value, was used to characterize the compound-mediated AR degradation efficiency.

Compound	DC50 [nM]	Y	Y (hydrochloride)
C[C@@H]1CN(CCO[C@H]2CC[C@H](N3C(=S)N(c4ccc(C#N)c(C(F)(F)F)c4)C(=O)C3(C)C)CC2)C[C@H](C)N1CC(=O)Nc1ccc(C2(C)CCC(=O)NC2=O)cn1 (single isomer, unassigned) [Cmpd 5, hydrochloride]	> 200	*** (40%<Y<80%)	–
C[C@@H]1CN(CCO[C@H]2CC[C@H](N3C(=S)N(c4ccc(C#N)c(C(F)(F)F)c4)C(=O)C3(C)C)CC2)C[C@H](C)N1CC(=O)Nc1ccc(C2(C)CCC(=O)NC2=O)cn1 (single isomer, unassigned) [Cmpd 6, hydrochloride]	> 200	*** (40%<Y<80%)	–
C[C@@H]1CN(CCCO[C@H]2CC[C@H](N3C(=S)N(c4ccc(C#N)c(C(F)(F)F)c4)C(=O)C3(C)C)CC2)C[C@H](C)N1CC(=O)Nc1cc(N2CCC(=O)NC2=O)ccn1 (single isomer, unassigned) [Cmpd 7, hydrochloride]	> 200	*** (40%<Y<80%)	–
C[C@@H]1CN(CCO[C@H]2CC[C@H](N3C(=S)N(c4ccc(C#N)c(C(F)(F)F)c4)C(=O)C3(C)C)CC2)C[C@H](C)N1CC(=O)Nc1cc(C2(C)CCC(=O)NC2=O)ccn1 (single isomer, unassigned) [Cmpd 8, hydrochloride]	≤ 5	–	* (0<Y≤20%)
C[C@@H]1CN(CCO[C@H]2CC[C@H](N3C(=S)N(c4ccc(C#N)c(C(F)(F)F)c4)C(=O)C3(C)C)CC2)C[C@H](C)N1CC(=O)Nc1cc(C2(C)CCC(=O)NC2=O)ccn1 (single isomer, unassigned) [Cmpd 9, hydrochloride]	≤ 5	–	** (20%<Y≤40%)
C[C@@H]1CN(CCO[C@H]2CC[C@H](N3C(=S)N(c4ccc(C#N)c(C(F)(F)F)c4)C(=O)C3(C)C)CC2)C[C@H](C)N1CC(=O)Nc1cc(C2CCC(=O)NC2=O)ccn1 (stereo partly drawn) [Cmpd 1, 2-((2R,6S)-4-(2-((trans-4-(3-(4-Cyano-3-(trifluoromethyl)phenyl)-5,5-dimethyl-4-oxo-2-thioxoimidazolidin-1-yl)cyclohexyl)oxy)ethyl)-2,6-dimethylpiperazin-1-yl)-N-(4-(2,6-dioxopiperidin-3-yl)pyridin-2-yl)acetamide hydrochloride]	5 to 50	** (20%<Y≤40%)	–
C[C@@H]1CN(CCO[C@H]2CC[C@H](N3C(=S)N(c4ccc(C#N)c(C(F)(F)F)c4)C(=O)C3(C)C)CC2)C[C@H](C)N1CC(=O)Nc1ccc(C2CCC(=O)NC2=O)cn1 (stereo partly drawn) [Cmpd 2, 2-((2R,6S)-4-(2-((trans-4-(3-(4-Cyano-3-(trifluoromethyl)phenyl)-5,5-dimethyl-4-oxo-2-thioxoimidazolidin-1-yl)cyclohexyl)oxy)ethyl)-2,6-dimethylpiperazin-1-yl)-N-(5-(2,6-dioxopiperidin-3-yl)pyridin-2-yl)acetamide hydrochloride]	5 to 50	** (20%<Y≤40%)	–
C[C@@H]1CN(CCO[C@H]2CC[C@H](N3C(=S)N(c4ccc(C#N)c(C(F)(F)F)c4)C(=O)C3(C)C)CC2)C[C@H](C)N1CC(=O)Nc1ccc(N2CCC(=O)NC2=O)cn1 [Cmpd 3, 2-((2R,6S)-4-(2-((trans-4-(3-(4-Cyano-3-(trifluoromethyl)phenyl)-5,5-dimethyl-4-oxo-2-thioxoimidazolidin-1-yl)cyclohexyl)oxy)ethyl)-2,6-dimethylpiperazin-1-yl)-N-(5-(2,4-dioxotetrahydropyrimidin-1(2H)-yl)pyridin-2-yl)acetamide hydrochloride]	> 200	*** (40%<Y<80%)	–
C[C@@H]1CN(CCO[C@H]2CC[C@H](N3C(=S)N(c4ccc(C#N)c(Cl)c4)C(=O)C3(C)C)CC2)C[C@H](C)N1CC(=O)Nc1cc(C2CCC(=O)NC2=O)ccn1 (stereo partly drawn) [Cmpd 4, 2-((2R,6S)-4-(2-((trans-4-(3-(3-Chloro-4-cyanophenyl)-5,5-dimethyl-4-oxo-2-thioxoimidazolidin-1-yl)cyclohexyl)oxy)ethyl)-2,6-dimethylpiperazin-1-yl)-N-(4-(2,6-dioxopiperidin-3-yl)pyridin-2-yl)acetamide hydrochloride]	5 to 50	** (20%<Y≤40%)	–
C[C@@H]1CN(CCCO[C@H]2CC[C@H](N3C(=S)N(c4ccc(C#N)c(C(F)(F)F)c4)C(=O)C3(C)C)CC2)C[C@H](C)N1CC(=O)Nc1ccc(C2CCC(=O)NC2=O)cn1 (stereo partly drawn) [Cmpd 10, 2-((2R,6S)-4-(3-((trans-4-(3-(4-Cyano-3-(trifluoromethyl)phenyl)-5,5-dimethyl-4-oxo-2-thioxoimidazolidin-1-yl)cyclohexyl)oxy)propyl)-2,6-dimethylpiperazin-1-yl)-N-(5-(2,6-dioxopiperidin-3-yl)pyridin-2-yl)acetamide hydrochloride]	> 200	*** (40%<Y<80%)	–
C[C@@H]1CN(CCO[C@H]2CC[C@H](N3C(=S)N(c4ccc(C#N)c(C(F)(F)F)c4)C(=O)C3(C)C)CC2)C[C@H](C)N1CCOc1ccc(N2CCC(=O)NC2=O)cn1 [Cmpd 11, 4-(3-(trans-4-(2-((3R,5S)-4-(2-((5-(2,4-Dioxotetrahydropyrimidin-1(2H)-yl)pyridin-2-yl)oxy)ethyl)-3,5-dimethylpiperazin-1-yl)ethoxy)cyclohexyl)-4,4-dimethyl-5-oxo-2-thioxoimidazolidin-1-yl)-2-(trifluoromethyl)benzonitrile hydrochloride]	> 200	*** (40%<Y<80%)	–
C[C@@H]1CN(CCO[C@H]2CC[C@H](N3C(=S)N(c4ccc(C#N)c(C(F)(F)F)c4)C(=O)C3(C)C)CC2)C[C@H](C)N1CCCOc1ccc(N2CCC(=O)NC2=O)cn1 [Cmpd 12, 4-(3-(trans-4-(2-((3R,5S)-4-(3-((5-(2,4-Dioxotetrahydropyrimidin-1(2H)-yl)pyridin-2-yl)oxy)propyl)-3,5-dimethylpiperazin-1-yl)ethoxy)cyclohexyl)-4,4-dimethyl-5-oxo-2-thioxoimidazolidin-1-yl)-2-(trifluoromethyl)benzonitrile hydrochloride]	> 200	*** (40%<Y<80%)	–
C[C@@H]1CN(CCCO[C@H]2CC[C@H](N3C(=S)N(c4ccc(C#N)c(C(F)(F)F)c4)C(=O)C3(C)C)CC2)C[C@H](C)N1CC(=O)Nc1cc(C2CCC(=O)NC2=O)ccn1 (stereo partly drawn) [Cmpd 13, 2-((2R,6S)-4-(3-((trans-4-(3-(4-Cyano-3-(trifluoromethyl)phenyl)-5,5-dimethyl-4-oxo-2-thioxoimidazolidin-1-yl)cyclohexyl)oxy)propyl)-2,6-dimethylpiperazin-1-yl)-N-(4-(2,6-dioxopiperidin-3-yl)pyridin-2-yl)acetamide hydrochloride]	≤ 5	*** (40%<Y<80%)	–
C[C@@H]1CN(CCCC[C@H]2CC[C@H](N3C(=S)N(c4ccc(C#N)c(C(F)(F)F)c4)C(=O)C3(C)C)CC2)C[C@H](C)N1CC(=O)Nc1cc(C2CCC(=O)NC2=O)ccn1 (stereo partly drawn) [Cmpd 14, 2-((2R,6S)-4-(4-(trans-4-(3-(4-Cyano-3-(trifluoromethyl)phenyl)-5,5-dimethyl-4-oxo-2-thioxoimidazolidin-1-yl)cyclohexyl)butyl)-2,6-dimethylpiperazin-1-yl)-N-(4-(2,6-dioxopiperidin-3-yl)pyridin-2-yl)acetamide hydrochloride]	5 to 50	* (0<Y≤20%)	–
C[C@@H]1CN(CCO[C@H]2CC[C@H](N3C(=S)N(c4ccc(C#N)c(C(F)(F)F)c4)C(=O)C3(C)C)CC2)C[C@H](C)N1CCOc1cc(C2CCC(=O)NC2=O)ccn1 (stereo partly drawn) [Cmpd 15, 4-(3-(trans-4-(2-((3R,5S)-4-(2-((4-(2,6-Dioxopiperidin-3-yl)pyridin-2-yl)oxy)ethyl)-3,5-dimethylpiperazin-1-yl)ethoxy)cyclohexyl)-4,4-dimethyl-5-oxo-2-thioxoimidazolidin-1-yl)-2-(trifluoromethyl)benzonitrile hydrochloride]	5 to 50	*** (40%<Y<80%)	–
